Among the test systems are 786-0; A498; A549; COLO 205; K562; KM12; M14; MOLT-4; NCI-H226; NCI/ADR-RES; OVCAR-8; RPMI-8226; SF-295; SF-539; SK-OV-3; SN12C; SW-620; HT-29; Hs-578T; NCI-H460.
Assay in all cases: NCI tumour cell line growth inhibition, 48 h

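Test compounds were applied to cells in 96-well plates for 48 hours at 5 doses. Abbreviation: GI50, concentration required for 50% inhibition of growth.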 The source made the active and inactive calls. No stated cut-off is given here; in the data, active = GI50 up to about 1.1 µM and inactive = higher.

Take `COc1ccc(-c2c(-c3ccc(OC)cc3)n3c(=O)n(C)c(=O)n23)cc1`: the GI50 in the assay on 786-0 is > 100 µM (inactive); in the assay on A498 it was 19.4 µM (inactive); in the assay with A549 it was 53.3 µM (inactive); in the assay with COLO 205 it was > 100 µM (inactive); in the assay with K562 it was > 100 µM (inactive); in the assay on KM12, > 100 µM (inactive). Further, the GI50 in the assay on M14 is > 100 µM (inactive); in the assay with MOLT-4 it was > 100 µM (inactive); in the assay with NCI-H226 it was 60.4 µM (inactive); in the assay on NCI/ADR-RES, 18.4 µM (inactive); in the assay on OVCAR-8 it was 17.6 µM (inactive); with RPMI-8226, 76.4 µM (inactive). For the same compound, the GI50 with SF-295 was > 100 µM (inactive); with SF-539 it was 24.6 µM (inactive); with SK-OV-3, 50.5 µM (inactive); with SN12C it was 34 µM (inactive); with SW-620, > 100 µM (inactive).
Regarding `C/C(=N\c1c2ccccc2nc2ccccc12)N(C)C`, the GI50 was 24.2 µM (inactive) with 786-0; 28.2 µM (inactive) in the assay on A549; 12.6 µM (inactive) with COLO 205; 9.48 µM (inactive) in the assay with HT-29; 22 µM (inactive) in the assay on Hs-578T; 3.91 µM (inactive) in the assay with K562. Also, the GI50 was 11.5 µM (inactive) with M14; 12.2 µM (inactive) in the assay with MOLT-4; 11.9 µM (inactive) in the assay with NCI-H226; 16.3 µM (inactive) in the assay on NCI/ADR-RES; 13.3 µM (inactive) in the assay with OVCAR-8; 13.6 µM (inactive) in the assay with RPMI-8226. Moreover, the figures for the GI50 in the assay with SF-295 and in the assay with SK-OV-3 were 14.8 µM (inactive) and 22.8 µM (inactive), respectively.
On to `Cn1nc(S(N)(=O)=O)s/c1=N/S(=O)(=O)c1ccc(N)cc1`, for which the GI50 with 786-0, with A498, in the assay with A549, in the assay on COLO 205, with HT-29 and with KM12 was > 100 µM (inactive) throughout. Besides, the GI50 with M14, with MOLT-4, in the assay on NCI-H226, in the assay on NCI-H460, with NCI/ADR-RES and in the assay on OVCAR-8 was > 100 µM (inactive) throughout. Moreover, the GI50 with RPMI-8226, in the assay with SF-295, in the assay with SF-539, in the assay on SK-OV-3 and with SW-620 was > 100 µM (inactive) each time.
With `CN(C)S(=O)(=O)/N=C/c1cccc(/C=N/S(=O)(=O)N(C)C)c1`, the GI50 was > 100 µM (inactive) in the assay on 786-0; > 100 µM (inactive) in the assay on A498; > 100 µM (inactive) with A549; 65.9 µM (inactive) in the assay with COLO 205; 52.4 µM (inactive) with K562; > 100 µM (inactive) in the assay with KM12. The GI50 is > 100 µM (inactive) in the assay with M14; > 100 µM (inactive) in the assay with MOLT-4; > 100 µM (inactive) with NCI-H226; > 100 µM (inactive) in the assay with NCI-H460; 81.7 µM (inactive) in the assay on NCI/ADR-RES; 51.3 µM (inactive) in the assay on OVCAR-8. For the same compound, the GI50 was 63.1 µM (inactive) with RPMI-8226; 0.728 µM (active) in the assay with SF-295; 23.9 µM (inactive) in the assay with SF-539; > 100 µM (inactive) in the assay with SK-OV-3; > 100 µM (inactive) in the assay with SN12C; 64 µM (inactive) in the assay with SW-620.
In the case of `Cc1nnc2n1N=C(c1ccccc1)/C(=C/c1ccc(-c3ccc(Cl)cc3)o1)S2`, the GI50 with 786-0 was 13.1 µM (inactive); in the assay with A498 it was 17.3 µM (inactive); in the assay on A549 it was 18 µM (inactive); with COLO 205 it was 25.2 µM (inactive); in the assay on HT-29, 16.5 µM (inactive); in the assay on Hs-578T, 54.3 µM (inactive). For the same compound, the GI50 with K562 was 7.85 µM (inactive); with KM12 it was 13.4 µM (inactive); in the assay with M14 it was 17.9 µM (inactive); with MOLT-4, 3.55 µM (inactive); in the assay with NCI-H226, 14.3 µM (inactive); in the assay with NCI-H460 it was 15.1 µM (inactive). The GI50 in the assay with RPMI-8226 is 5.11 µM (inactive); in the assay on SF-295, 15.9 µM (inactive); in the assay with SK-OV-3, 32.1 µM (inactive); in the assay with SN12C, 15.6 µM (inactive); in the assay on SW-620, 5 µM (inactive).
In the case of `CCN(CC)CCN(/C(=N/c1ccccc1)N1CCCCC1)c1ccccc1`, the GI50 in the assay on 786-0 was 26.1 µM (inactive); in the assay with A549, 14.8 µM (inactive); in the assay with COLO 205, 2.3 µM (inactive); with HT-29 it was 1.71 µM (inactive); with Hs-578T, 10.3 µM (inactive); in the assay with K562 it was 2.18 µM (inactive). For the same compound, the GI50 in the assay with KM12 is 5.2 µM (inactive); in the assay with M14, 6.34 µM (inactive); in the assay with MOLT-4 it was 2.99 µM (inactive); in the assay on NCI-H226, 9.23 µM (inactive); in the assay on NCI-H460, 4.78 µM (inactive); in the assay with OVCAR-8, 12.2 µM (inactive). The GI50 in the assay on RPMI-8226 was 2.54 µM (inactive); in the assay on SF-295 it was 3.62 µM (inactive); in the assay with SF-539, 18.7 µM (inactive); in the assay with SK-OV-3 it was 11.9 µM (inactive); in the assay with SN12C, 7 µM (inactive); in the assay with SW-620 it was 6.05 µM (inactive).
Turning to `O=C(NNC(=O)c1csc(NC(=S)NC2CCCCC2)n1)c1ccccc1`, the GI50 was 12.7 µM (inactive) in the assay on 786-0; 38 µM (inactive) in the assay with A498; 15.1 µM (inactive) with A549; 5.25 µM (inactive) in the assay on COLO 205; 7.23 µM (inactive) with HT-29; 8.13 µM (inactive) in the assay with KM12. For the same compound, the GI50 with M14 is 13.5 µM (inactive); with MOLT-4, 4.2 µM (inactive); in the assay on NCI-H226, 7.24 µM (inactive); in the assay with NCI/ADR-RES, 4.85 µM (inactive); with OVCAR-8, 6.52 µM (inactive); in the assay on RPMI-8226, 10 µM (inactive). The GI50 is 11 µM (inactive) in the assay on SF-295; 15 µM (inactive) in the assay with SF-539; 12.1 µM (inactive) in the assay with SK-OV-3; 5.97 µM (inactive) in the assay on SN12C; 10.3 µM (inactive) in the assay on SW-620.
With `CCC(O)c1ccc(/N=C/c2ccccc2O)cc1` (stereo not given), the GI50 in the assay with 786-0 is > 100 µM (inactive); with A498 it was > 100 µM (inactive); in the assay with A549, > 100 µM (inactive); in the assay on COLO 205, 49.9 µM (inactive); in the assay on HT-29, > 100 µM (inactive); in the assay on K562, > 100 µM (inactive). The GI50 with KM12, in the assay with M14, with MOLT-4, with NCI-H226, in the assay with NCI-H460 and with NCI/ADR-RES was > 100 µM (inactive) in each case. The GI50 in the assay on RPMI-8226, in the assay with SF-295, in the assay on SF-539, in the assay with SK-OV-3 and in the assay on SW-620 was > 100 µM (inactive) throughout.

Values taken from ChEMBL document CHEMBL1201862, “PubChem BioAssay data set” (2004).
